Source: PubChem BioAssay (NCI)
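Five concentrations, 48 hours, 96-well plates. GI50: concentration for 50% inhibition of growth. TGI marks complete inhibition of growth.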

Key:
Assay in all cases: inhibition of tumour cell growth, NCI panel, 48 h
A498 renal = system: A498 renal
ACHN renal = system: ACHN renal
BT-549 breast = system: BT-549 breast
CAKI-1 renal = system: CAKI-1 renal
CCRF-CEM leukemia = system: CCRF-CEM leukemia
COLO 205 colon = system: COLO 205 colon
DU-145 prostate = system: DU-145 prostate
EKVX NSCLC = system: EKVX NSCLC
HCC-2998 colon = system: HCC-2998 colon
HCT-15 colon = system: HCT-15 colon
HL-60(TB) leukemia = system: HL-60(TB) leukemia
HOP-92 NSCLC = system: HOP-92 NSCLC
HS 578T breast = system: HS 578T breast
HT29 colon = system: HT29 colon
K-562 leukemia = system: K-562 leukemia
MDA-MB-435 = system: MDA-MB-435
MOLT-4 leukemia = system: MOLT-4 leukemia
NCI-H460 lung = system: NCI-H460 lung
NCI/ADR-RES ovarian = system: NCI/ADR-RES ovarian
OVCAR-4 ovarian = system: OVCAR-4 ovarian
OVCAR-5 ovarian = system: OVCAR-5 ovarian
RPMI-8226 leukemia = system: RPMI-8226 leukemia
SF-268 CNS = system: SF-268 CNS
SK-MEL-28 melanoma = system: SK-MEL-28 melanoma
SK-MEL-5 melanoma = system: SK-MEL-5 melanoma
SN12C renal = system: SN12C renal
SNB-75 CNS = system: SNB-75 CNS
SR leukemia = system: SR leukemia
SW-620 colon = system: SW-620 colon
T-47D breast = system: T-47D breast
TK-10 renal = system: TK-10 renal
UACC-62 melanoma = system: UACC-62 melanoma
UO-31 renal = system: UO-31 renal
HCT-116 colon = system: HCT-116 colon
IGROV1 ovarian = system: IGROV1 ovarian
KM12 colon = system: KM12 colon
LOX IMVI melanoma = system: LOX IMVI melanoma
M14 melanoma = system: M14 melanoma
MALME-3M melanoma = system: MALME-3M melanoma
MCF7 breast = system: MCF7 breast
MDA-MB-231 breast = system: MDA-MB-231 breast
NCI-H23 lung = system: NCI-H23 lung
SF-295 CNS = system: SF-295 CNS
SF-539 CNS = system: SF-539 CNS
SNB-19 CNS = system: SNB-19 CNS

**Q.** Which GI50 (A498 renal) does the source give for `[Cl][Ru].c1ccc(-c2cc(-c3ccccn3)nc(-c3ccccn3)c2)cc1.c1ccc(-c2ccnc3c2ccc2c(-c4ccccc4)ccnc23)cc1` here?
**A.** 1930 nM

**Q.** And the TGI (A498 renal)?
**A.** 4560 nM

**Q.** What about the GI50 (ACHN renal) of the same molecule?
**A.** 3230 nM

**Q.** And the TGI (ACHN renal)?
**A.** 25700 nM

**Q.** And the GI50 (BT-549 breast)?
**A.** 224 nM

**Q.** And the TGI (BT-549 breast)?
**A.** 869 nM

**Q.** What about the GI50 (CAKI-1 renal) of the same molecule?
**A.** 3150 nM

**Q.** And the TGI (CAKI-1 renal)?
**A.** 26600 nM

**Q.** What about the GI50 (CCRF-CEM leukemia) of the same molecule?
**A.** 415 nM

**Q.** What about the GI50 (COLO 205 colon) of the same molecule?
**A.** 182 nM

**Q.** What about the TGI (COLO 205 colon) of the same molecule?
**A.** 335 nM

**Q.** And the GI50 (DU-145 prostate)?
**A.** 529 nM

**Q.** What about the GI50 (EKVX NSCLC) of the same molecule?
**A.** 352 nM

**Q.** What about the TGI (EKVX NSCLC) of the same molecule?
**A.** 2360 nM

**Q.** And the GI50 (HCC-2998 colon)?
**A.** 356 nM

**Q.** What about the TGI (HCC-2998 colon) of the same molecule?
**A.** 1450 nM

**Q.** What about the GI50 (HCT-15 colon) of the same molecule?
**A.** 2080 nM

**Q.** What about the TGI (HCT-15 colon) of the same molecule?
**A.** 4730 nM

**Q.** What about the GI50 (HL-60(TB) leukemia) of the same molecule?
**A.** 252 nM

**Q.** What about the TGI (HL-60(TB) leukemia) of the same molecule?
**A.** 696 nM

**Q.** And the GI50 (HOP-92 NSCLC)?
**A.** 139 nM

**Q.** And the TGI (HOP-92 NSCLC)?
**A.** 543 nM

**Q.** What about the GI50 (HS 578T breast) of the same molecule?
**A.** 275 nM

**Q.** What about the TGI (HS 578T breast) of the same molecule?
**A.** 919 nM

**Q.** What about the GI50 (HT29 colon) of the same molecule?
**A.** 333 nM

**Q.** And the TGI (HT29 colon)?
**A.** 1310 nM

**Q.** What about the GI50 (K-562 leukemia) of the same molecule?
**A.** 301 nM

**Q.** What about the TGI (K-562 leukemia) of the same molecule?
**A.** 4660 nM

**Q.** And the GI50 (MDA-MB-435)?
**A.** 322 nM

**Q.** And the TGI (MDA-MB-435)?
**A.** 1010 nM

**Q.** And the GI50 (MOLT-4 leukemia)?
**A.** 332 nM

**Q.** What about the TGI (MOLT-4 leukemia) of the same molecule?
**A.** 1620 nM

**Q.** What about the GI50 (NCI-H460 lung) of the same molecule?
**A.** 351 nM

**Q.** What about the TGI (NCI-H460 lung) of the same molecule?
**A.** 1120 nM

**Q.** What about the GI50 (NCI/ADR-RES ovarian) of the same molecule?
**A.** 31100 nM

**Q.** What about the TGI (NCI/ADR-RES ovarian) of the same molecule?
**A.** > 100000 nM

**Q.** And the GI50 (OVCAR-4 ovarian)?
**A.** 424 nM

**Q.** What about the TGI (OVCAR-4 ovarian) of the same molecule?
**A.** 2500 nM

**Q.** And the GI50 (OVCAR-5 ovarian)?
**A.** 396 nM

**Q.** What about the TGI (OVCAR-5 ovarian) of the same molecule?
**A.** 1710 nM

**Q.** And the GI50 (RPMI-8226 leukemia)?
**A.** 232 nM

**Q.** And the TGI (RPMI-8226 leukemia)?
**A.** 727 nM

**Q.** And the GI50 (SF-268 CNS)?
**A.** 489 nM

**Q.** What about the GI50 (SK-MEL-28 melanoma) of the same molecule?
**A.** 418 nM

**Q.** And the TGI (SK-MEL-28 melanoma)?
**A.** 1580 nM

**Q.** What about the GI50 (SK-MEL-5 melanoma) of the same molecule?
**A.** 577 nM

**Q.** What about the TGI (SK-MEL-5 melanoma) of the same molecule?
**A.** 1840 nM

**Q.** And the GI50 (SN12C renal)?
**A.** 266 nM

**Q.** What about the TGI (SN12C renal) of the same molecule?
**A.** 915 nM

**Q.** What about the GI50 (SNB-75 CNS) of the same molecule?
**A.** 179 nM

**Q.** What about the TGI (SNB-75 CNS) of the same molecule?
**A.** 829 nM

**Q.** And the TGI (SR leukemia)?
**A.** 1090 nM

**Q.** What about the GI50 (SW-620 colon) of the same molecule?
**A.** 451 nM

**Q.** And the TGI (SW-620 colon)?
**A.** 1670 nM

**Q.** And the GI50 (T-47D breast)?
**A.** 270 nM

**Q.** What about the TGI (T-47D breast) of the same molecule?
**A.** 1070 nM

**Q.** And the GI50 (TK-10 renal)?
**A.** 1600 nM

**Q.** What about the TGI (TK-10 renal) of the same molecule?
**A.** 4150 nM

**Q.** What about the GI50 (UACC-62 melanoma) of the same molecule?
**A.** 292 nM

**Q.** And the TGI (UACC-62 melanoma)?
**A.** 1170 nM

**Q.** What about the GI50 (UO-31 renal) of the same molecule?
**A.** 2620 nM

**Q.** What about the TGI (UO-31 renal) of the same molecule?
**A.** > 45800 nM

**Q.** Which GI50 (ACHN renal) does the source give for `CCOC(=O)c1c(NC(=O)c2cccc(C(F)(F)F)c2)sc2c(CN3CCN(C)CC3)c(O)ccc12` here?
**A.** 1820 nM

**Q.** What about the TGI (ACHN renal) of the same molecule?
**A.** 3310 nM

**Q.** What about the GI50 (CCRF-CEM leukemia) of the same molecule?
**A.** 1510 nM

**Q.** And the TGI (CCRF-CEM leukemia)?
**A.** 4220 nM

**Q.** What about the GI50 (EKVX NSCLC) of the same molecule?
**A.** 1690 nM

**Q.** What about the TGI (EKVX NSCLC) of the same molecule?
**A.** 3310 nM

**Q.** What about the GI50 (HCC-2998 colon) of the same molecule?
**A.** 1650 nM

**Q.** And the TGI (HCC-2998 colon)?
**A.** 3370 nM

**Q.** And the GI50 (HCT-116 colon)?
**A.** 1000 nM

**Q.** What about the TGI (HCT-116 colon) of the same molecule?
**A.** 2430 nM

**Q.** And the GI50 (HCT-15 colon)?
**A.** 1610 nM

**Q.** What about the TGI (HCT-15 colon) of the same molecule?
**A.** 3130 nM

**Q.** And the GI50 (HS 578T breast)?
**A.** 1890 nM

**Q.** What about the TGI (HS 578T breast) of the same molecule?
**A.** 4510 nM

**Q.** And the GI50 (IGROV1 ovarian)?
**A.** 1700 nM

**Q.** What about the TGI (IGROV1 ovarian) of the same molecule?
**A.** 3270 nM

**Q.** And the GI50 (KM12 colon)?
**A.** 1860 nM

**Q.** And the TGI (KM12 colon)?
**A.** 3400 nM

**Q.** What about the GI50 (LOX IMVI melanoma) of the same molecule?
**A.** 1760 nM

**Q.** And the TGI (LOX IMVI melanoma)?
**A.** 3310 nM

**Q.** What about the GI50 (M14 melanoma) of the same molecule?
**A.** 1880 nM

**Q.** What about the TGI (M14 melanoma) of the same molecule?
**A.** 3530 nM

**Q.** And the GI50 (MALME-3M melanoma)?
**A.** 1650 nM

**Q.** What about the TGI (MALME-3M melanoma) of the same molecule?
**A.** 3150 nM

**Q.** What about the GI50 (MCF7 breast) of the same molecule?
**A.** 1510 nM

**Q.** And the TGI (MCF7 breast)?
**A.** 3030 nM

**Q.** What about the GI50 (MDA-MB-231 breast) of the same molecule?
**A.** 1650 nM

**Q.** And the TGI (MDA-MB-231 breast)?
**A.** 3110 nM

**Q.** What about the GI50 (MDA-MB-435) of the same molecule?
**A.** 1690 nM

**Q.** What about the TGI (MDA-MB-435) of the same molecule?
**A.** 3100 nM

**Q.** And the GI50 (NCI-H23 lung)?
**A.** 1760 nM

**Q.** And the TGI (NCI-H23 lung)?
**A.** 3280 nM

**Q.** What about the GI50 (OVCAR-5 ovarian) of the same molecule?
**A.** 1500 nM

**Q.** What about the TGI (OVCAR-5 ovarian) of the same molecule?
**A.** 2850 nM

**Q.** And the GI50 (SF-295 CNS)?
**A.** 1700 nM

**Q.** And the TGI (SF-295 CNS)?
**A.** 3250 nM

**Q.** And the GI50 (SF-539 CNS)?
**A.** 1620 nM

**Q.** And the TGI (SF-539 CNS)?
**A.** 3060 nM

**Q.** What about the GI50 (SK-MEL-28 melanoma) of the same molecule?
**A.** 1720 nM

**Q.** And the TGI (SK-MEL-28 melanoma)?
**A.** 3150 nM

**Q.** And the GI50 (SK-MEL-5 melanoma)?
**A.** 1790 nM

**Q.** And the TGI (SK-MEL-5 melanoma)?
**A.** 3400 nM

**Q.** And the GI50 (SN12C renal)?
**A.** 1670 nM

**Q.** And the TGI (SN12C renal)?
**A.** 3160 nM

**Q.** And the GI50 (SNB-19 CNS)?
**A.** 1720 nM

**Q.** What about the TGI (SNB-19 CNS) of the same molecule?
**A.** 3310 nM

**Q.** What about the GI50 (UACC-62 melanoma) of the same molecule?
**A.** 1760 nM

**Q.** And the TGI (UACC-62 melanoma)?
**A.** 3270 nM

**Q.** What about the GI50 (UO-31 renal) of the same molecule?
**A.** 1520 nM

**Q.** And the TGI (UO-31 renal)?
**A.** 3000 nM
